Target: T1, JAK3 (Homo sapiens, UniProt P52333)
T1 sequence (P52333 1-1124): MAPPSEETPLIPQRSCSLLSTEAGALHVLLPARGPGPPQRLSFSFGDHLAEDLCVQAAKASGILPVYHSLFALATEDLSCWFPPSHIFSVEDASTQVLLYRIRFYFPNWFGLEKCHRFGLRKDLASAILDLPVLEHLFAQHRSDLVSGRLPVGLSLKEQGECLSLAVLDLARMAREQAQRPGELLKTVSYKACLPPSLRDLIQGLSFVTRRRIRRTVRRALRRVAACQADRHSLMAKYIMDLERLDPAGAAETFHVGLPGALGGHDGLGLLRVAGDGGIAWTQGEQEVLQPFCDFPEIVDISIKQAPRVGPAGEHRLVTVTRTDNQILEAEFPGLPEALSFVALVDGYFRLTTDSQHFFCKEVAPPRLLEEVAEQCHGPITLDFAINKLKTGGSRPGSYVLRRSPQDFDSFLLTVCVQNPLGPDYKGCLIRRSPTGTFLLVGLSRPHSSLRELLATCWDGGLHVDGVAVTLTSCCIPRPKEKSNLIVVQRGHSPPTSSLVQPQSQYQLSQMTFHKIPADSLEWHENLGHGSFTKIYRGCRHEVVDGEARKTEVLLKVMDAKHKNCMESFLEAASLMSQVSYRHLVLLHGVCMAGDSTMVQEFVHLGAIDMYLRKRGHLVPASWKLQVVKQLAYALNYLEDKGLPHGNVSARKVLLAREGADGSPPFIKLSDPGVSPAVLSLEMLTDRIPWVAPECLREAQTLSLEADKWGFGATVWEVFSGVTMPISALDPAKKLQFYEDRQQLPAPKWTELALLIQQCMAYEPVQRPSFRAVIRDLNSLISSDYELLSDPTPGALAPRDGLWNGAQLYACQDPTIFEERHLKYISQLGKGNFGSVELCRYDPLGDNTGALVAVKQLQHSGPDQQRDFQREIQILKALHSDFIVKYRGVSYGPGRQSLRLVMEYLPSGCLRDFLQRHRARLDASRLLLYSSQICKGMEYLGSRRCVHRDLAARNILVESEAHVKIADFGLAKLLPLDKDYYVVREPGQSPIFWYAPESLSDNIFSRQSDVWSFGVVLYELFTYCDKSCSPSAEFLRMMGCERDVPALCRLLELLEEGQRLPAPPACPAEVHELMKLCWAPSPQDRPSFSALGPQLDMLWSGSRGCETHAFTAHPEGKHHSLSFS
Experiment: JAK3 Inhibition Assay (33P incorporation into poly(Glu)4Tyr)
Assay type: biochemical
Conditions: for Ki: 1 nM JAK3, 5 μM ATP, 1 μM poly(Glu)4Tyr, 25° C.
Description: Compounds were screened for their ability to inhibit JAK3 using the assay shown below. Reactions were carried out in a kinase buffer containing 100 mM HEPES (pH 7.4), 1 mM DTT, 10 mM MgCl2, 25 mM NaCl, and 0.01% BSA. Substrate concentrations in the assay were 5 μM ATP (200 uCi/μmole ATP) and 1 μM poly(Glu)4Tyr. Reactions were carried out at 25° C. and 1 nM JAK3.
To each well of a 96 well polycarbonate plate was added 1.5 μl of a candidate JAK3 inhibitor along with 50 μlof kinase buffer containing 2 μM poly(Glu)4Tyr and 10 μM ATP. This was then mixed and 50 μl of kinase buffer containing 2 nM JAK3 enzyme was added to start the reaction. After 20 minutes at room temperature (25° C.), the reaction was stopped with 50 μl of 20% trichloroacetic acid (TCA) that also contained 0.4 mM ATP. The entire contents of each well were then transferred to a 96 well glass fiber filter plate using a TomTek Cell Harvester. After washing, 60 μl of scintillation fluid was added and ^33P incorporation detected on a Perkin Elmer TopCount.

SMILES	Ki [µM]	inhibition of JAK3 at concentrations of 50 μM	other results
CC(C)(Nc1ccnc(-c2c[nH]c(C(=O)NCc3ccccc3)c2)n1)C(=O)NCC(F)(F)F [Compound 99]	10 to 50	–	–
CC(C)[C@@H](Nc1ccnc(-c2c[nH]c(=O)c(N)c2)n1)C(=O)NCC(F)(F)F [Compound 135]	10 to 50	–	–
CC(C)(Nc1nc(-c2ccc3nc(N)sc3c2)ncc1F)C(=O)NCC(F)(F)F [Compound 66]	1 to 10	–	–
O=C(CCNc1nc(-c2ccc(F)nc2)ncc1F)NCC(F)(F)F [Compound 13]	–	did not inhibit	–
CC(C)[C@H](Nc1ccnc(-c2cccnc2N)n1)C(=O)NCC(F)(F)F [Compound 28]	1 to 10	–	–
CC(C)(Nc1nc(-c2c[nH]c3ccc(Cl)cc23)ncc1F)C(=O)NCC(F)(F)F [Compound 156]	1 to 10	–	–
O=C(CCNc1nc(-c2cccnc2F)ncc1F)NCC(F)(F)F [Compound 12]	–	did not inhibit	–
Nc1cc(-c2ncc(F)c(N3CCC[C@@H]3C(=O)NCC(F)(F)F)n2)c[nH]c1=O [Compound 138]	–	did not inhibit	–
CC(C)(Nc1nc(-c2ccc3nccnc3c2)ncc1F)C(=O)NCC(F)(F)F [Compound 162]	≤ 1	–	–
O=C(NCC(F)(F)F)[C@H]1CCCN1c1nc(-c2ccc3ncccc3c2)ncc1F [Compound 89]	10 to 50	–	–
CC(C)[C@@H](Nc1ccnc(-c2c[nH]c(C(=O)NCC3CC3)c2)n1)C(=O)NCC(F)(F)F [Compound 112]	1 to 10	–	–
CC(C)(Nc1nc(-c2ccc3ncccc3c2)ncc1F)C(=O)NCC(F)(F)F [Compound 68]	≤ 1	–	–
Nc1nc(Nc2ccc(F)cc2)nn1-c1cc(NCCC(=O)NCC(F)(F)F)ncn1 [Compound 35]	≤ 1	–	–
CC(C)(Nc1nc(-c2c[nH]c(C(=O)NCc3ccccc3)c2)ncc1F)C(=O)NCC(F)(F)F [Compound 95]	–	did not inhibit	–
O=C(CNc1nc(-c2cccnc2)ncc1F)NCC(F)(F)F [Compound 11]	1 to 10	–	–
C[C@@H](Nc1nc(-c2cccnc2)ncc1F)C(=O)NCC(F)(F)F [Compound 20]	10 to 50	–	–
O=C(NCC(F)(F)F)[C@H]1CCCN1c1nc(-c2cccnc2F)ncc1F [Compound 21]	–	did not inhibit	–
C[C@H](Nc1nc(-c2c[nH]c(C(=O)O)c2)ncc1F)C(=O)NCC(F)(F)F [Compound 7]	–	did not inhibit	–
CC(C)Nc1nc(N)n(-c2ncc(F)c(N3CCC[C@@H]3C(=O)NCC(F)(F)F)n2)n1 [Compound 53]	–	–	inhibition of JAK3 at concentrations of 5.0 μM: did not inhibit
CC(C)[C@@H](Nc1nc(-c2c[nH]c3ccc(Cl)cc23)ncc1F)C(=O)NCC(F)(F)F [Compound 160]	–	did not inhibit	–
Nc1ccc(Nc2nc(N)n(-c3ncc(F)c(N4CCCC4C(=O)NCC(F)(F)F)n3)n2)cc1 (stereo not shown) [Compound 56]	≤ 1	–	–
O=C(NCc1ccccc1)c1cc(-c2ncc(F)c(N3CCC[C@@H]3C(=O)NCC(F)(F)F)n2)c[nH]1 [Compound 116]	10 to 50	–	–
O=C(NCC(F)(F)F)[C@H]1CCCN1c1ccnc(-c2c[nH]c3ccc(Cl)cc23)n1 [Compound 159]	10 to 50	–	–
CC(C)[C@@H](Nc1ccnc(-c2c[nH]c(C(=O)NCc3ccccc3)c2)n1)C(=O)NCC(F)(F)F [Compound 110]	1 to 10	–	–
COc1ccc(-c2nccc(N3CCC[C@@H]3C(=O)NCC(F)(F)F)n2)cn1 [Compound 62]	–	did not inhibit	–
Nc1nc(Nc2ccccc2Cl)nn1-c1ncc(F)c(N2CCC[C@@H]2C(=O)NCC(F)(F)F)n1 [Compound 41]	–	–	inhibition of JAK3 at concentrations of 5.0 μM: did not inhibit
O=C(NCC(F)(F)F)[C@H]1CCCN1c1ccnc(-c2ccc3ncsc3c2)n1 [Compound 155]	≤ 1	–	–
COc1ccc(-c2nccc(N[C@@H](C(=O)NCC(F)(F)F)C(C)C)n2)cc1 [Compound 143]	–	did not inhibit	–

SMILES	Ki [µM]	inhibition of JAK3 at concentrations of 50 μM	other results
Nc1nc(Nc2ccc(F)cc2)nn1-c1cc(NCC(=O)NCC(F)(F)F)ncn1 [Compound 36]	≤ 1	–	–
CC[C@H](Nc1cc(-n2nc(Nc3ccc(F)cc3)nc2N)ncn1)C(=O)NCC(F)(F)F [Compound 34]	≤ 1	–	–
CC(C)[C@@H](Nc1ccnc(-c2ccc3ncccc3c2)n1)C(=O)NCC(F)(F)F [Compound 72]	1 to 10	–	–
O=C(NCC(F)(F)F)[C@H]1CCCN1c1nc(-c2c[nH]c(C(=O)N3CCCC3)c2)ncc1F [Compound 119]	1 to 10	–	–
C[C@H](Nc1nc(-n2nc(Nc3ccc(F)cc3)nc2N)ncc1F)C(=O)NCC(F)(F)F [Compound 45]	1 to 10	–	–
O=C(NCC(F)(F)F)[C@H]1CCCN1c1nc(-c2c[nH]c3ccc(Cl)cc23)ncc1F [Compound 157]	–	did not inhibit	–
C[C@@H](Nc1nc(-c2ccc(F)nc2)ncc1F)C(=O)NCC(F)(F)F [Compound 19]	–	did not inhibit	–
CC(C)[C@@H](Nc1nc(-c2ccc(=O)[nH]c2)ncc1F)C(=O)NCC(F)(F)F [Compound 87]	–	did not inhibit	–
COc1ccc(-c2ncc(F)c(NCCC(=O)NCC(F)(F)F)n2)cn1 [Compound 14]	–	did not inhibit	–
O=C(NCC(F)(F)F)[C@@H]1CCCN1c1nc(-c2ccc(F)nc2)ncc1F [Compound 25]	–	did not inhibit	–
Nc1nc2ccc(-c3ncc(F)c(N4CCC[C@@H]4C(=O)NCC(F)(F)F)n3)cc2s1 [Compound 90]	–	did not inhibit	–
CC(C)(Nc1ccnc(-c2c[nH]c3ccc(Cl)cc23)n1)C(=O)NCC(F)(F)F [Compound 158]	1 to 10	–	–
O=C(NCC(F)(F)F)[C@H]1CCCN1c1ccnc(-c2ccc3ncccc3c2)n1 [Compound 60]	1 to 10	–	–
O=C(NCC(F)(F)F)[C@H]1CCCN1c1nc(-c2ccc(O)cc2)ncc1F [Compound 151]	10 to 50	–	–
O=C(NCC(F)(F)F)[C@H]1CCCN1c1nc(-c2ccc3ncsc3c2)ncc1F [Compound 141]	1 to 10	–	–
CC(C)[C@@H](Nc1ccnc(-c2c[nH]c(C(=O)O)c2)n1)C(=O)NCC(F)(F)F [Compound 134]	–	did not inhibit	–
CC(C)[C@@H](Nc1nc(-c2c[nH]c(=O)c(N)c2)ncc1F)C(=O)NCC(F)(F)F [Compound 137]	10 to 50	–	–
O=C(NCC(F)(F)F)[C@H]1CCCN1c1ccnc(-c2ccc3c(c2)OCO3)n1 [Compound 59]	1 to 10	–	–
CC(C)[C@@H](Nc1ccnc(-c2ccc3ncsc3c2)n1)C(=O)NCC(F)(F)F [Compound 148]	≤ 1	–	–
CC(C)[C@@H](Nc1nc(-c2ccc3nccnc3c2)ncc1F)C(=O)NCC(F)(F)F [Compound 168]	1 to 10	–	–
Nc1nc(NCC2CCCCC2)nn1-c1ncc(F)c(N2CCC[C@@H]2C(=O)NCC(F)(F)F)n1 [Compound 48]	–	–	inhibition of JAK3 at concentrations of 5.0 μM: did not inhibit
CC(C)NC(=O)c1cc(-c2ncc(F)c(N3CCC[C@@H]3C(=O)NCC(F)(F)F)n2)c[nH]1 [Compound 117]	–	did not inhibit	–
Nc1cccc(Nc2nc(N)n(-c3ncc(F)c(N4CCCC4C(=O)NCC(F)(F)F)n3)n2)c1 (stereo not shown) [Compound 57]	1 to 10	–	–
COc1ccc(-c2nccc(NC(C)(C)C(=O)NCC(F)(F)F)n2)cc1 [Compound 149]	–	did not inhibit	–
C[C@H](Nc1cc(-n2nc(Nc3ccc(F)cc3)nc2N)ncn1)C(=O)NCC(F)(F)F [Compound 33]	≤ 1	–	–
O=C(NCC(F)(F)F)[C@H]1CCCN1c1nc(-c2ccc3c(c2)OCO3)ncc1F [Compound 88]	10 to 50	–	–
C[C@H](Nc1nc(-c2cccnc2N)ncc1F)C(=O)NCC(F)(F)F [Compound 27]	1 to 10	–	–

Source: patent US8686143B2, “Compounds useful as inhibitors of Janus kinases” (Vertex Pharmaceuticals Incorporated, priority 2007, dated 2014)
